The results in this text go back to ChEMBL document CHEMBL5465560, “Selectivity Literature for EUbOPEN Chemogenomic Library” (2024).

In general, IC50 refers to the midpoint of a concentration-inhibition curve.

The target of experiment [1] is Serine/threonine-protein kinase N2 (Homo sapiens, UniProt Q16513). Put plainly: Selectivity interaction (LanthaScreen Eu Kinase Binding Assay) EUB0001632a PKN2. Particulars: at 10 µM. A general note: Time-resolved FRET reads energy transfer from a long-lived donor to a nearby acceptor.
The target in experiment [2] is Cyclin-dependent kinase 17 (Homo sapiens) (UniProt Q00537). Put plainly: Selectivity interaction (Kinase panel (KiNativ target engagement assay in Jurkat cells)) EUB0001635a CDK17. It is filed as cell-based. The note with it: Selectivity number of off-targets 0.0, Selectivity number of targets 233.0, Source Knowledge https://www.sciencedirect.com/science/article/pii/S2451945619300674?via%3Dihub, at 1 µM.

Experiment [3] concerns the target T1, Serine/threonine-protein kinase DCLK2 (Homo sapiens) (UniProt Q8N568).
T1 sequence (whole entry): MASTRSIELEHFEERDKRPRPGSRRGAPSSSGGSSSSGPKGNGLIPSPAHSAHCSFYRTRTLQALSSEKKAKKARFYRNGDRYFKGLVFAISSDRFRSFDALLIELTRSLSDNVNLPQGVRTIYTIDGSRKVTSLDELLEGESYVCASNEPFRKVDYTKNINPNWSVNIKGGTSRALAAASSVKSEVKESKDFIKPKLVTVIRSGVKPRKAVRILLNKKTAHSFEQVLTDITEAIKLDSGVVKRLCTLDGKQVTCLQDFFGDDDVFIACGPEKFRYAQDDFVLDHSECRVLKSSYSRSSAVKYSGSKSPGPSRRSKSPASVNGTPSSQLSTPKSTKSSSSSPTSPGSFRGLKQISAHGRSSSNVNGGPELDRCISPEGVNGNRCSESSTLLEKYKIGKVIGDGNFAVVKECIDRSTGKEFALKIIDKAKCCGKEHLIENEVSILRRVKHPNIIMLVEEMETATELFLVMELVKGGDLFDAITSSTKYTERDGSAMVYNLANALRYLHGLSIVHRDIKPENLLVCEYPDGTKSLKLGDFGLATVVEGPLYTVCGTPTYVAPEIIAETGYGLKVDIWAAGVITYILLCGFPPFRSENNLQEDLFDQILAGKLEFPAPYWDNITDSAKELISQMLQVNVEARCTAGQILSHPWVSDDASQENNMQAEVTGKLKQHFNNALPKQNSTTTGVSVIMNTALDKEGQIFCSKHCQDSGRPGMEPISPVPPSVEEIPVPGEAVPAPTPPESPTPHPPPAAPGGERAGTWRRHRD
Put plainly: Selectivity interaction (Ambit KINOMEscan and KiNATiv profiling in Jurkat cells) EUB0000090b DCLK2. It is filed as cell-based. The note with it: at 1 µM.

Experiment [4] deals with Serine/threonine-protein kinase SBK1 (Homo sapiens) (UniProt Q52WX2). Put plainly: Selectivity interaction (Ambit KINOMEscan and KiNATiv profiling in Jurkat cells) EUB0000090b SBK1. It is filed as cell-based. Particulars: at 1 µM.
Experiment [5] addresses Serine/threonine-protein kinase pim-3 (Homo sapiens) (UniProt Q86V86). Put plainly: Selectivity interaction (KinomeScan (DiscoverX)) EUB0000607a PIM3. The note with it: at 10 µM.
In experiment [6] the target is Macrophage colony-stimulating factor 1 receptor (Homo sapiens) (UniProt P07333). Particulars: at 10 µM.
Experiment [7] concerns the target T2, Mitogen-activated protein kinase 15 (Homo sapiens) (UniProt Q8TD08).
T2 sequence (whole entry): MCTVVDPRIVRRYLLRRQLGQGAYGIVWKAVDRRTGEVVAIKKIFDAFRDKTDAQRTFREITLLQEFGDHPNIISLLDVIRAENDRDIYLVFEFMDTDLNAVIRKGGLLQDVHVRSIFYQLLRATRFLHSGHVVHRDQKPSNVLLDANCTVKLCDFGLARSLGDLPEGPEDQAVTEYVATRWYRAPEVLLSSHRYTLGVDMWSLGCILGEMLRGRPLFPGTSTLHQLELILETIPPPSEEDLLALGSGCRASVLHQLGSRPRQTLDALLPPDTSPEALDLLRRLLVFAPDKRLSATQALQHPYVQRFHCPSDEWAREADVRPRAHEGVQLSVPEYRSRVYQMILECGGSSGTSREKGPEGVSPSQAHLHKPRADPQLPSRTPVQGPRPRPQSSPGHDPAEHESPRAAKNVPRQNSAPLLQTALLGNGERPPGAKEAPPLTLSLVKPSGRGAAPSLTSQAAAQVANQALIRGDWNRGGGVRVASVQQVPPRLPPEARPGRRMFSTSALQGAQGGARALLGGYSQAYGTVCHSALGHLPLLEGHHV
Particulars: at 10 µM.

The target of experiment [8] is Vascular endothelial growth factor receptor 3 (Homo sapiens, UniProt P35916). Put plainly: Selectivity interaction (KinomeScan (DiscoverX)) EUB0000229b FLT4. The note with it: at 10 µM.
Experiment [9] has as its target T3, NUAK family SNF1-like kinase 1 (Homo sapiens) (UniProt O60285).
T3 sequence (whole entry): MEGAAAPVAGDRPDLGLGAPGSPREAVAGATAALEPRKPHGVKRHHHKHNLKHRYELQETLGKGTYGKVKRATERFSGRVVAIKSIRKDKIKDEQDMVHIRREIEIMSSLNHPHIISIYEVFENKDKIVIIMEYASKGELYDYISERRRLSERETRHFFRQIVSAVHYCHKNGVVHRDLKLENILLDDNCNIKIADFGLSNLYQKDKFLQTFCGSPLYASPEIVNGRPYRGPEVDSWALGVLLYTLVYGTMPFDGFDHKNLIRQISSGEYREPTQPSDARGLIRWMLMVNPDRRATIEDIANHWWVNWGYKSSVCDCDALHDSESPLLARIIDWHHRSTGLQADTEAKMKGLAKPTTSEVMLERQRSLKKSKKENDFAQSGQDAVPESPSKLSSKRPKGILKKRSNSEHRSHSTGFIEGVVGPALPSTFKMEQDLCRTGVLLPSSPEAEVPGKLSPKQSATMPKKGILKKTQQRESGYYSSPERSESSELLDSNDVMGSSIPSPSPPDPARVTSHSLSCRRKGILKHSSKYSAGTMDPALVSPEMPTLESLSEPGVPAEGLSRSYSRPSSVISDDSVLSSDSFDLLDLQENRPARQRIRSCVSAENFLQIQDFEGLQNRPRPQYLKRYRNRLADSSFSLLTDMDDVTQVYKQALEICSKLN
Put plainly: Selectivity interaction (KinomeScan (DiscoverX)) EUB0001079a NUAK1. Particulars: at 1 µM.

In experiment [10] the target is Serine/threonine-protein kinase SMG1 (Homo sapiens) (UniProt Q96Q15). Put plainly: Selectivity interaction (ActivX KiNativ screen (kinase selectivity in THP-1 cell lysates)) EUB0000639a SMG1. The note with it: lysate, at 1 µM. It is filed as subcellular.
The test system of experiment [11] is Fibroblast growth factor receptor 3 (Homo sapiens), P22607 [G697C]. Put plainly: (§1) Selectivity interaction (KinomeScan (DiscoverX)) EUB0001049a FGFR3. Particulars: at 1 µM.
Experiment [12] deals with Fibroblast growth factor receptor 3 (Homo sapiens, UniProt P22607). The experiment is described as §1. Particulars: at 1 µM.
Experiment [13] concerns the target Fibroblast growth factor receptor 2 (Homo sapiens) (UniProt P21802). Put plainly: Selectivity interaction (KinomeScan (DiscoverX)) EUB0000618a FGFR2. The note with it: at 10 µM.
Experiment [14] concerns the target Vascular endothelial growth factor receptor 2 (Homo sapiens, UniProt P35968). Put plainly: Selectivity interaction (Kinase panel (enzymatic assay)) EUB0000595a KDR.
The test system of experiment [15] is Phosphatidylinositol 4,5-bisphosphate 3-kinase catalytic subunit alpha isoform (Homo sapiens), P42336 [H1047Y]. Particulars: at 10 µM.

Chain of Vascular endothelial growth factor receptor 3 (P35916 whole entry): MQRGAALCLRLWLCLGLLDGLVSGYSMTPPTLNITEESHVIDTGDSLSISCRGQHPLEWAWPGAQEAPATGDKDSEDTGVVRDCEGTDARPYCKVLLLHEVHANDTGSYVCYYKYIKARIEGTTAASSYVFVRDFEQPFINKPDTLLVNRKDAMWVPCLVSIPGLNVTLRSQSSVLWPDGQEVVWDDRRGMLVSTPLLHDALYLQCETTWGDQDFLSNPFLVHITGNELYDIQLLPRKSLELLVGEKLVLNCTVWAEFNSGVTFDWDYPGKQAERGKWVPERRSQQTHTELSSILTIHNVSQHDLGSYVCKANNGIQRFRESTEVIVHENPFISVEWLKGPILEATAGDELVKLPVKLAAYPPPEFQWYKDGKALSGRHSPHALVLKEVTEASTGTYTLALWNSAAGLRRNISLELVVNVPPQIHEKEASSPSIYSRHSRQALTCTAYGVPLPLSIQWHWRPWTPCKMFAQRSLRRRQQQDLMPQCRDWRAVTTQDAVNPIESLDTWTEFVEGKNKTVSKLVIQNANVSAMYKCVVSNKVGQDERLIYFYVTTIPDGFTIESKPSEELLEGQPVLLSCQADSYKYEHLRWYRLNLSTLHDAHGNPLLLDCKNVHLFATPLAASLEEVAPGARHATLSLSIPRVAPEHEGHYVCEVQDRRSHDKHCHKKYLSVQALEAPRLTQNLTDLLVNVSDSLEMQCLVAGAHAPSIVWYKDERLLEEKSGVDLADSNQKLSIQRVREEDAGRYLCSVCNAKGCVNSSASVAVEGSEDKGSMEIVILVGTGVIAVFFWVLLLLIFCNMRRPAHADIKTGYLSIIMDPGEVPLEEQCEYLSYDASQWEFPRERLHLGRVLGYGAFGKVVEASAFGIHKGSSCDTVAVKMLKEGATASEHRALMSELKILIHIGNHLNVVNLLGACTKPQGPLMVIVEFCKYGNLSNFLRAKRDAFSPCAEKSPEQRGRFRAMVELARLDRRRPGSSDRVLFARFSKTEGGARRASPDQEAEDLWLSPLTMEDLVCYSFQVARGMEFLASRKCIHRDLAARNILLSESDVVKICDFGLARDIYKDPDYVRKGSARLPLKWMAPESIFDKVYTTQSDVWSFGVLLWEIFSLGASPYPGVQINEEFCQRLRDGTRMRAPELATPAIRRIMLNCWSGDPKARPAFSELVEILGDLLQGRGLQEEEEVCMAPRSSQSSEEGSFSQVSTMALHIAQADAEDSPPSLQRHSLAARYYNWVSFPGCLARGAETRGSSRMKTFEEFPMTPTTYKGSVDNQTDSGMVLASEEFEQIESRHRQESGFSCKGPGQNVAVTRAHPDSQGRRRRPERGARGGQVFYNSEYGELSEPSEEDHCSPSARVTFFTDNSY
Chain of Serine/threonine-protein kinase SBK1 (Homo sapiens) (Q52WX2 whole entry): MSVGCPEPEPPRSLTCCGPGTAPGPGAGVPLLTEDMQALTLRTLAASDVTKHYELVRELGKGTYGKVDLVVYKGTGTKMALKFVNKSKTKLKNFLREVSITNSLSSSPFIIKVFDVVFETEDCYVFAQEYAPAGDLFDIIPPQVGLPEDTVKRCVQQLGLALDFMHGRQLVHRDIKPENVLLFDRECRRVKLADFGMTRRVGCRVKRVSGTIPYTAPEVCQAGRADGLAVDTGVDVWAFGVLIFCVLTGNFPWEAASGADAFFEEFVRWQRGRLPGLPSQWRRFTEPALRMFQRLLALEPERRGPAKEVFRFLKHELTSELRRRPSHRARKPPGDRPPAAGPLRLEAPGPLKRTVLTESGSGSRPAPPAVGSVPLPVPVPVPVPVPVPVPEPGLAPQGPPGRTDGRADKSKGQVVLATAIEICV
Chain of Macrophage colony-stimulating factor 1 receptor (Homo sapiens) (P07333 whole entry): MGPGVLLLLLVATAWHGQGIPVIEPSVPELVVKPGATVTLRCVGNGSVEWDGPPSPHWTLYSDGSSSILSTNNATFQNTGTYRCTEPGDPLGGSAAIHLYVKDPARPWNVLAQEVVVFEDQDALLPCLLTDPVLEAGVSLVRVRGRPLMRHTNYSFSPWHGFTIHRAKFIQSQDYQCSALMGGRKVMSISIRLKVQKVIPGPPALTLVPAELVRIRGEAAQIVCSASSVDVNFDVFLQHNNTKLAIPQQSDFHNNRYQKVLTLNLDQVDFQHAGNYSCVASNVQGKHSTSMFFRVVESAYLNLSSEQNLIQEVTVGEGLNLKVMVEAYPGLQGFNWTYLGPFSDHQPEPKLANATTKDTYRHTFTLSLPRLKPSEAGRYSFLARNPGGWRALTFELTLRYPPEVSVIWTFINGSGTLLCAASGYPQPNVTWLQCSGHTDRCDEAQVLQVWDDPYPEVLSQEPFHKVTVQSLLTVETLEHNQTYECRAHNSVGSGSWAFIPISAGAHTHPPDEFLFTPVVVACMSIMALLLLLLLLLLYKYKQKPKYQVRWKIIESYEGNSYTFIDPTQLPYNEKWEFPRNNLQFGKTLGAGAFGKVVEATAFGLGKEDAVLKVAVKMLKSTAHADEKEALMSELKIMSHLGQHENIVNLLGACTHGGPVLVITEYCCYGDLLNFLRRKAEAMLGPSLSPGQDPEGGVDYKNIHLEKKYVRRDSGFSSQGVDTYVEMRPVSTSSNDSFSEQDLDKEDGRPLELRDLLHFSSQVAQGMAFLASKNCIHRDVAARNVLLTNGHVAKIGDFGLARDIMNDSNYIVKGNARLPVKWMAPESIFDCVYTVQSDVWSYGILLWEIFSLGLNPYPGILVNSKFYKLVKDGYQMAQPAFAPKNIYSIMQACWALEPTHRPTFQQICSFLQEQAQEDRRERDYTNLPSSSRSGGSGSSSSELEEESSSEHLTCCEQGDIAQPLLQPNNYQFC
Chain of Fibroblast growth factor receptor 3 (Homo sapiens), P22607 [G697C] (P22607 whole entry G697C): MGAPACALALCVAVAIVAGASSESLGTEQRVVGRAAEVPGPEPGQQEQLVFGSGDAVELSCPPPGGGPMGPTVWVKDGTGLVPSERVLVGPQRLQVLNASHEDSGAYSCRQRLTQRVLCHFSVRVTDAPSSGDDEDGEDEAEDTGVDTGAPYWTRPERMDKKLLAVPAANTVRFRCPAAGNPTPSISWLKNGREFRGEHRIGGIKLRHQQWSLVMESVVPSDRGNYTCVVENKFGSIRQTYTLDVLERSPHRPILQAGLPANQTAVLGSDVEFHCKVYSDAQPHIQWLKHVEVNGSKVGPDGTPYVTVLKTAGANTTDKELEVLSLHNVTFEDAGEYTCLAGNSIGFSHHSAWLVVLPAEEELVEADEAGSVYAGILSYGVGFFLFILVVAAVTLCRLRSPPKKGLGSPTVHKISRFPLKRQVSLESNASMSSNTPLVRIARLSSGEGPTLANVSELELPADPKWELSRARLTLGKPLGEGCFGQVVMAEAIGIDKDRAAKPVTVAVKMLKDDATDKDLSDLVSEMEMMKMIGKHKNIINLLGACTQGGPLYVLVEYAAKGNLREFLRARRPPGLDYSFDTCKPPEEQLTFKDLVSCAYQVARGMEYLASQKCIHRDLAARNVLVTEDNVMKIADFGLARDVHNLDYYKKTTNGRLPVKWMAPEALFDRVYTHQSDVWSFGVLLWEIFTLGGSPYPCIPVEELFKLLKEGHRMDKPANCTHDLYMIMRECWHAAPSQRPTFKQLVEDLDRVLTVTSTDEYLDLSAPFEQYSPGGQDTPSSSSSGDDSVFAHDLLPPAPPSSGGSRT
Chain of Serine/threonine-protein kinase N2 (Q16513 whole entry, looked up): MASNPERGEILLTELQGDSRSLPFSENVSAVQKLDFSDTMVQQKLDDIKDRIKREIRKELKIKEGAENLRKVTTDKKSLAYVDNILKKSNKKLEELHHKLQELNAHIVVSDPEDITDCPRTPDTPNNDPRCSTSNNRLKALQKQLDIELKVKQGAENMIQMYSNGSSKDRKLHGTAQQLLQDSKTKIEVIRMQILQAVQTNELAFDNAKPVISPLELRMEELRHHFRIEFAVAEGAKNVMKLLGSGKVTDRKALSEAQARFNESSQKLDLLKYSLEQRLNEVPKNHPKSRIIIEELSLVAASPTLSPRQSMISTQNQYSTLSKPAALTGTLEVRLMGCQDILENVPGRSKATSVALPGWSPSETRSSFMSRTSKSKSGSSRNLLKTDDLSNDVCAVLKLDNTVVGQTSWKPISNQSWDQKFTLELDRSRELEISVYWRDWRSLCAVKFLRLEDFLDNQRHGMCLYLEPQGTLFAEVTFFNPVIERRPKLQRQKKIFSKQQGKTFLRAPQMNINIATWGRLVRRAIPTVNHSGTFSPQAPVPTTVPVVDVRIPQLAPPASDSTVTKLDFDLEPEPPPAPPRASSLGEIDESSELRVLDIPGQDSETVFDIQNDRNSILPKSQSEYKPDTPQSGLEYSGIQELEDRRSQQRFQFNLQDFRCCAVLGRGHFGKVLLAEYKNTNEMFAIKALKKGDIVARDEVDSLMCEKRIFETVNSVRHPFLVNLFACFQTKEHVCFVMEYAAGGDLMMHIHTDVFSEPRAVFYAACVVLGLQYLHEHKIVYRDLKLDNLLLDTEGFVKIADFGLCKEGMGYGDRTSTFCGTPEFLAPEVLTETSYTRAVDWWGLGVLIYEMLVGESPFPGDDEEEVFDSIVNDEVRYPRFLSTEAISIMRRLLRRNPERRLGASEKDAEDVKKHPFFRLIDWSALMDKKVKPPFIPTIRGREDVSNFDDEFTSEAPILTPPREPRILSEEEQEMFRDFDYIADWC
Chain of Cyclin-dependent kinase 17 (Homo sapiens) (Q00537 whole entry, looked up): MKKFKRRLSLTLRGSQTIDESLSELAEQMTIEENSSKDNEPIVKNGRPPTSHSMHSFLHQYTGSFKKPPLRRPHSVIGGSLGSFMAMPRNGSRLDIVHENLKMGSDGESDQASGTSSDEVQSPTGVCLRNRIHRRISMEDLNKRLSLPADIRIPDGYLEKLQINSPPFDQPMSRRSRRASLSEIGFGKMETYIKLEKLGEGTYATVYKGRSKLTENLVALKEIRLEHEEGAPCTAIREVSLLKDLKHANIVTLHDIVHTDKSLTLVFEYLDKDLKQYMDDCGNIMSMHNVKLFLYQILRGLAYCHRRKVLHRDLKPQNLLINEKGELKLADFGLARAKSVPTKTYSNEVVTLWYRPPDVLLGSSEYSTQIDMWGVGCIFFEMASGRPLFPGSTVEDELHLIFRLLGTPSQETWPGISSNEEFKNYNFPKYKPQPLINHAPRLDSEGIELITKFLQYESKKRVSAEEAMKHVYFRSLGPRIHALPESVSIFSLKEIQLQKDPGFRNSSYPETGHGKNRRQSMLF

Turning to `Cn1cc(-n2cnc3c(NCc4nc5cc(Cl)c(Cl)cc5[nH]4)nc(N4CCOCC4)nc32)cn1`, the % of inhibition in [1] was -5.46%.

In experiment [2], `C=CC(=O)Nc1ccc(C(=O)Nc2[nH]nc3c2CN(C(=O)N[C@H](CN(C)C)c2ccccc2)C3(C)C)cc1` showed a % of engagement of 12.8%.

For `CN(C)C/C=C/C(=O)Nc1ccc(C(=O)N2CCCC(Nc3ncc(Cl)c(-c4c[nH]c5ccccc45)n3)C2)cc1` (stereo not given), the % of control in [3] worked out at 78%; in experiment [4] it was 100%.

The compound `CNC(=O)Nc1ccc(-c2nc(N3CC4CCC(C3)O4)c3cnn(C4CCC5(CC4)OCCO5)c3n2)cc1` registered a % of control in [5] of 100%.

On to `Cc1cc([C@@H](C)Nc2ccccc2C(=O)O)c2nc(N3CCOCC3)cc(=O)n2c1` [AZD-6482], for which the results for the % of control in experiment [6] and in [7] were 94% and 100%, respectively.

Compound `COc1cc(N(C)c2ccnc3ccc(C(F)(F)F)cc23)cc(OC)c1OC` showed a % binding in experiment [8] of 96%.

As for `Nc1cnc(N2CCc3cc(S(=O)(=O)Nc4c(F)cc(Cl)cc4F)cc(N4CCCC4=O)c32)nc1` [TP-020n], the % of control in experiment [9] was determined as 100%.

For `CC[C@@H]1[C@H](F)C(=O)N[C@@H]1COc1nccc2cc(C(N)=O)c(OC)cc12` [ZIMLOVISERTIB], the % of inhibition in experiment [10] was found to be 4.9%.

On to `COc1cc(Nc2nc(C)cc(-c3cnn4nc(OC)ccc34)n2)cc(C(F)(F)F)c1`, for which the % of control in [11] and in [12] was 96% in each case.

`O[C@H]1CC[C@H](Nc2ncc3nc(Nc4c(F)cc(F)cc4F)n([C@H]4CCOC4)c3n2)CC1` displayed a % of control in experiment [13] of 83%.

`COCC(=O)NC/C=C/c1ccc2ncnc(Nc3ccc(Oc4ccc(C)nc4)c(C)c3)c2c1` [CP-724714] displayed an IC50 in experiment [14] of over 10 µM. The % of control in experiment [15] is 47%.
